Test results published in the NIST ThermoML archive (doi:10.1021/je0604481).

Assay: mn = molality of the nth substance listed, in mol/kg
Conditions: Liquid; for viscosity: Capillary tube (Ostwald / Ubbelohde) method; for mass density: Constant-volume piezometry

O=S(=O)([O-])[O-].[Mg+2] [magnesium sulfate] + O
Conditions | mass density [kg/m3] | viscosity [mPa·s]
348.15 K, 100 kPa, m1 = 2.291 | – | 1.503
348.15 K, 101 kPa, m1 = 0.084 | 984.5 | –
348.15 K, 101 kPa, m1 = 0.261 | 1004.83 | –
348.15 K, 101 kPa, m1 = 0.469 | 1028.4 | –
348.15 K, 101 kPa, m1 = 0.841 | 1069.05 | –
348.15 K, 10000 kPa, m1 = 0.437 | – | 0.4948
348.15 K, 10000 kPa, m1 = 2.291 | – | 1.514
348.15 K, 30000 kPa, m1 = 0.437 | – | 0.5024
348.15 K, 30000 kPa, m1 = 2.291 | – | 1.536
348.2 K, 100 kPa, m1 = 1.824 | – | 1.127
348.2 K, 10000 kPa, m1 = 1.824 | – | 1.135
348.2 K, 30000 kPa, m1 = 1.824 | – | 1.151
348.23 K, 2118 kPa, m1 = 2.224 | 1208.2 | –
348.23 K, 8002 kPa, m1 = 2.224 | 1210.4 | –
348.23 K, 14710 kPa, m1 = 2.224 | 1212.2 | –
348.23 K, 25300 kPa, m1 = 2.224 | 1215.7 | –
348.23 K, 30020 kPa, m1 = 2.224 | 1217.1 | –
348.25 K, 100 kPa, m1 = 0.255 | – | 0.4399
348.25 K, 10000 kPa, m1 = 0.255 | – | 0.4432
348.25 K, 30000 kPa, m1 = 0.255 | – | 0.4502
348.32 K, 100 kPa, m1 = 0.085 | – | 0.3976
348.32 K, 10000 kPa, m1 = 0.085 | – | 0.4008
348.32 K, 30000 kPa, m1 = 0.085 | – | 0.4066
348.35 K, 100 kPa, m1 = 2.623 | – | 1.849
348.35 K, 10000 kPa, m1 = 2.623 | – | 1.863
348.35 K, 30000 kPa, m1 = 2.623 | – | 1.889
348.36 K, 100 kPa, m1 = 0.722 | – | 0.5831
348.36 K, 10000 kPa, m1 = 0.722 | – | 0.5875
348.36 K, 30000 kPa, m1 = 0.722 | – | 0.5961
348.75 K, 100 kPa, m1 = 0.923 | – | 0.6495
348.75 K, 10000 kPa, m1 = 0.923 | – | 0.6548
348.75 K, 30000 kPa, m1 = 0.923 | – | 0.6642
358.95 K, 101 kPa, m1 = 2.224 | 1200.88 | –
358.95 K, 101 kPa, m1 = 2.535 | 1228.61 | –
370.1 K, 100 kPa, m1 = 2.291 | – | 1.068
370.1 K, 10000 kPa, m1 = 2.291 | – | 1.078
370.1 K, 30000 kPa, m1 = 2.291 | – | 1.099
370.4 K, 100 kPa, m1 = 0.923 | – | 0.4894
370.4 K, 10000 kPa, m1 = 0.923 | – | 0.4945
370.4 K, 30000 kPa, m1 = 0.923 | – | 0.5035
370.45 K, 100 kPa, m1 = 0.085 | – | 0.3053
370.45 K, 100 kPa, m1 = 0.722 | – | 0.4386
370.45 K, 10000 kPa, m1 = 0.085 | – | 0.3084
370.45 K, 10000 kPa, m1 = 0.722 | – | 0.4433
370.45 K, 30000 kPa, m1 = 0.085 | – | 0.3144
370.45 K, 30000 kPa, m1 = 0.722 | – | 0.4516
370.75 K, 100 kPa, m1 = 2.623 | – | 1.295
370.75 K, 10000 kPa, m1 = 2.623 | – | 1.308
370.75 K, 30000 kPa, m1 = 2.623 | – | 1.333
371.44 K, 100 kPa, m1 = 1.824 | – | 0.804
371.44 K, 10000 kPa, m1 = 1.824 | – | 0.811
371.44 K, 30000 kPa, m1 = 1.824 | – | 0.827
371.9 K, 100 kPa, m1 = 0.437 | – | 0.3654
371.9 K, 10000 kPa, m1 = 0.437 | – | 0.3694
371.9 K, 30000 kPa, m1 = 0.437 | – | 0.3766
372.4 K, 100 kPa, m1 = 0.255 | – | 0.33
372.4 K, 10000 kPa, m1 = 0.255 | – | 0.3336
372.4 K, 30000 kPa, m1 = 0.255 | – | 0.34
373.22 K, 3020 kPa, m1 = 2.535 | 1220.3 | –
373.22 K, 6610 kPa, m1 = 2.535 | 1221.6 | –
373.22 K, 14380 kPa, m1 = 2.535 | 1224.1 | –
373.22 K, 21080 kPa, m1 = 2.535 | 1226.1 | –
373.22 K, 24710 kPa, m1 = 2.535 | 1227.4 | –
373.22 K, 29800 kPa, m1 = 2.535 | 1229 | –
373.24 K, 2275 kPa, m1 = 2.224 | 1192.8 | –
373.24 K, 7355 kPa, m1 = 2.224 | 1194.5 | –
373.24 K, 12870 kPa, m1 = 2.224 | 1196.4 | –
373.24 K, 20420 kPa, m1 = 2.224 | 1198.9 | –
373.24 K, 29820 kPa, m1 = 2.224 | 1201.7 | –
394.16 K, 10000 kPa, m1 = 2.623 | – | 0.963
394.16 K, 30000 kPa, m1 = 2.623 | – | 0.985
396.25 K, 10000 kPa, m1 = 0.923 | – | 0.377
396.25 K, 30000 kPa, m1 = 0.923 | – | 0.3862
397.1 K, 10000 kPa, m1 = 1.824 | – | 0.605
397.1 K, 30000 kPa, m1 = 1.824 | – | 0.619
397.14 K, 10000 kPa, m1 = 0.085 | – | 0.2381
397.14 K, 30000 kPa, m1 = 0.085 | – | 0.2437
398.15 K, 5810 kPa, m1 = 2.535 | 1203.8 | –
398.15 K, 11100 kPa, m1 = 2.535 | 1205.6 | –
398.15 K, 21700 kPa, m1 = 2.535 | 1209 | –
398.15 K, 29400 kPa, m1 = 2.535 | 1211.5 | –
398.19 K, 2452 kPa, m1 = 2.224 | 1175.3 | –
398.19 K, 7355 kPa, m1 = 2.224 | 1177.2 | –
398.19 K, 12080 kPa, m1 = 2.224 | 1178.9 | –
398.19 K, 19850 kPa, m1 = 2.224 | 1181.7 | –
398.19 K, 26220 kPa, m1 = 2.224 | 1183.8 | –
398.7 K, 10000 kPa, m1 = 2.291 | – | 0.774
398.7 K, 30000 kPa, m1 = 2.291 | – | 0.792
398.75 K, 10000 kPa, m1 = 0.437 | – | 0.2834
398.75 K, 30000 kPa, m1 = 0.437 | – | 0.2901
399.24 K, 10000 kPa, m1 = 0.722 | – | 0.3306
399.24 K, 30000 kPa, m1 = 0.722 | – | 0.3384
399.44 K, 10000 kPa, m1 = 0.255 | – | 0.2566
399.44 K, 30000 kPa, m1 = 0.255 | – | 0.2625
422.1 K, 10000 kPa, m1 = 1.824 | – | 0.477
422.1 K, 30000 kPa, m1 = 1.824 | – | 0.49
422.35 K, 10000 kPa, m1 = 0.923 | – | 0.3
422.35 K, 30000 kPa, m1 = 0.923 | – | 0.3081
422.7 K, 10000 kPa, m1 = 0.085 | – | 0.1945
422.7 K, 30000 kPa, m1 = 0.085 | – | 0.1999
423.85 K, 10000 kPa, m1 = 0.255 | – | 0.2113
423.85 K, 30000 kPa, m1 = 0.255 | – | 0.2169
424.13 K, 10000 kPa, m1 = 0.437 | – | 0.23
424.13 K, 30000 kPa, m1 = 0.437 | – | 0.2366
428.16 K, 10000 kPa, m1 = 0.722 | – | 0.2597
428.16 K, 30000 kPa, m1 = 0.722 | – | 0.2673
447.16 K, 10000 kPa, m1 = 0.255 | – | 0.1798
447.16 K, 30000 kPa, m1 = 0.255 | – | 0.1855
447.42 K, 10000 kPa, m1 = 0.437 | – | 0.1966
447.42 K, 30000 kPa, m1 = 0.437 | – | 0.2019
448.24 K, 10000 kPa, m1 = 0.085 | – | 0.1643
448.24 K, 30000 kPa, m1 = 0.085 | – | 0.1694
